Data reported in patent US20040198973A1, “Process for preparation of carbapenem antibiotics” (priority 2001, published 2004).

How the values were obtained:
Pseudomonas aeruginosa = conditions: Document 1: Drug of the Future, 1996, 21(4): 361-365; cited from earlier work
[1] = Solubility of starting compound 1 in organic solvents; type: physicochemical
Source text: The process described in Document 3 (Kohichi Hirai, Hiroshi Maruyama, Journal of Synthetic Organic Chemistry, Japan, 57, 383 (1999)) is the one for implementing such a procedure wherein a side chain part including amine is first condensed with parent derived from azetidinone, then, an active ester is introduced into the condensate, and thereafter, the resulting product is subjected to ring-closing reaction to form a lactam ring. However, a compound into which an active ester has been already introduced, p-nitrobenzyl(1R,5S,6S)-2-diphenoxyphosphoryloxy-6-[(R)-1-hydroxyethyl]-1-methyl-1-carbapen-2-em-3-carboxylate (starting compound 1) is industrially available recently at an affordable price as a starting material for parent of carbapenem, so that the starting material has been replaced by the above-described compound. However, solubility of the starting compound 1 is high in a high boiling point solvent such as dimethylformamide and dimethylsulfoxide, while it is low in a solvent having a low boiling point such as tetrahydrofuran and acetonitrile, as well as in aromatic solvents such as toluene (see the following Table 1). Under the circumstances, when a high boiling point solvent is used, a difficulty in industrial level arises in case of removing the high boiling point solvent as described later in detail. For this reason, there are many cases wherein the above-described starting compound 1 cannot be applied to the process of Document 3.

Compound	antimicrobial action (Pseudomonas aeruginosa)	Solubility ([1]; Acetonitrile, at 20° C., solvent volume per 0.1 g)	Solubility ([1]; Dimethylformamide, at 20° C., solvent volume per 0.1 g)	Solubility ([1]; Methylsulfoxide, at 20° C., solvent volume per 0.1 g)	Solubility ([1]; Tetrahydrofuran, at 20° C., solvent volume per 0.1 g)	Solubility ([1]; Toluene, at 20° C., solvent volume per 0.1 g)	Solubility ([1]; in a high boiling point solvent such as dimethylformamide and dimethylsulfoxide)	Solubility ([1]; in a low boiling point solvent such as tetrahydrofuran and acetonitrile, and aromatic solvents such as toluene)
C[C@@H](O)[C@H]1C(=O)N2C(C(=O)O)=C(S[C@@H]3CN[C@H]([C@H](O)[C@@H]4CCNC4)C3)[C@H](C)[C@H]12	excellent antimicrobial action	–	–	–	–	–	–	–
C[C@@H](O)[C@H]1C(=O)N2C(C(=O)OCc3ccc([N+](=O)[O-])cc3)=C(OP(=O)(Oc3ccccc3)Oc3ccccc3)[C@H](C)[C@@H]12 [p-nitrobenzyl(1R,5S,6S)-2-diphenoxyphosphoryloxy-6-[(R)-1-hydroxyethyl]-1-methyl-1-carbapen-2-em-3-carboxylate]	–	0.6 ML/0.1 g	<0.1 ML/0.1 g	<0.1 ML/0.1 g	0.6 ML/0.1 g	>10 ML/0.1 g	high	low
